SMILES strings stand for the structures.

The test relates to RSV A2. Kind of test: Screening for RSV inhibition using Viral ToxGlo assay (cytopathic effect inhibition in HEp-2 cells). The format is cell-based, Respiratory Syncytial Virus (RSV). To be noted: human respiratory syncytial virus; RSV A2 in HEp-2 cells, MOI 0.5, 72h p.i., cytopathic effect inhibition relative to virus control, Viral ToxGlo luminescence. On the procedure: Protocol for Screening Antiviral Compounds for RSV Inhibition and Cytotoxicity Using Viral ToxGlo Assay
HEp-2 cells were maintained in Eagle's minimum essential medium (EMEM) with Earle's BSS adjusted to contain 2 mM L-glutamine, 10% fetal bovine serum, 100 U/ml penicillin and 100 µg/ml streptomycin. For the purposes of the screening assay they were grown to 90% confluency, trypsinized and recovered. The trypsin was neutralised with cell culture media and cells were centrifuged at 150×g for 5 minutes before discarding the supernatant and resuspending cell pellet in assay media (EMEM with Earle's BSS adjusted to contain 2 mM L-glutamine, 2% fetal bovine serum and 100 U/ml penicillin and 100 µg/ml streptomycin). The cells were seeded into white clear-bottomed cell culture plates at a density of 1.5×10^4 cells/well in 50 μl and 4×10^3 cells/well in 25 μl for 96 well plates and 384 well plates respectively. For the media/background control column assay media only was added. Cell plates were placed in a humid chamber and incubated overnight at 37° C./5% CO2. After overnight incubation cells were checked for confluency and healthy appearance.
Test articles were made up at 10× test concentration in a maximum DMSO concentration of 10% (final assay concentration maximal 1% DMSO) and added to the cell plates in volumes of […] for 96 well plates and 5 μl for 384 well plates. For cell control and virus control wells the test article solvent only was added. Virus or assay media for cytotoxicity test wells and media/cell control wells was added immediately after test articles at an MOI of […] for 96 and 384 well plates respectively. Virus suspension was prepared by thawing RSV A2 frozen stocks and diluting to the required concentration of plaque forming units in assay media on ice.
Cell plates were further incubated inside a humid chamber for 72h p.i at 37° C./5% CO2. After the incubation period cells were observed under the microscope to check for characteristic cytopathic effect in virus control wells and healthy cells in the cell control wells. After plates were adjusted to room temperature 20/40 μl Viral ToxGlo (Promega) was added to each well of the 384/96 well cell plates. Plates were incubated at room temperature, protected from light on a plate rocker for 20 minutes before measuring the luminescence on a spectrophotometer (Biotek Synergy HTX).
Background: Damage to the host cells serves as the signal in cytopathic effect assays.
As usually defined, the EC50 is the concentration giving half of the maximal effect. Take `CC(C)(C)C(=O)Nc1cccc(Nc2ccc(C(=O)N=C3NCCN3)cc2C(C)(C)C)c1` [Compound 20, 3-tert-butyl-4-{[3-(2,2-dimethylpropanamido)phenyl]amino}-N-[(2Z)-imidazolidin-2-ylidene]benzamide]: the EC50 was 23.5 nM.
Take `CC(C)NC(=O)c1cc(C#N)cc(Nc2ccc(C(=O)N=C3NCCN3)cc2C2CC2)c1` [Compound 112, 4-({3-cyano-5-[(propan-2-yl)carbamoyl]phenyl}amino)-3-cyclopropyl-N-[imidazolidin-2-ylidene]benzamide]: the concentration giving a half-maximal response (EC50) was found to be 710 nM.
The figure for `CC(C)C(=O)Nc1cccc(Nc2ccc(C(=O)N=C3NCCN3CC(F)F)cc2C2CC2)c1` [Compound 113, 3-cyclopropyl-N-[1-(2,2-difluoroethyl)imidazolidin-2-ylidene]-4-{[3-(2-methylpropanamido)phenyl]amino}benzamide] is 59.9 nM.
As to `CC1(NC(=O)c2cccc(Nc3ccc(C(=O)N=C4NCCN4)cc3C3CC3)c2Cl)CC1` [Compound 167, 4-({2-chloro-3-[(1-methylcyclopropyl)carbamoyl]phenyl}amino)-3-cyclopropyl-N-[imidazolidin-2-ylidene]benzamide], the concentration giving a half-maximal response (EC50) was 17.8 nM.
`CC(C)NC(=O)c1cccc(Nc2cc(F)c(C(=O)N=C3NCCN3)cc2C2CC2)c1` [Compound 131, 5-cyclopropyl-2-fluoro-N-[imidazolidin-2-ylidene]-4-({3-[(propan-2-yl)carbamoyl]phenyl}amino)benzamide]: the EC50 is 77.9 nM.
As to `CC1(NC(=O)c2cccc(Nc3c(F)cc(C(=O)N=C4NCCN4)cc3C3CC3)c2)CC1` [Compound 117, 3-cyclopropyl-5-fluoro-N-[imidazolidin-2-ylidene]-4-({3-[(1-methylcyclopropyl)carbamoyl]phenyl}amino)benzamide], the EC50 turned out to be 5.6 nM.
Take `CC(C)NC(=O)c1cccc(Nc2ccc(C(=O)/N=C3\NCCN3C)cc2C(C)(C)C)c1` [Compound 17, 3-tert-butyl-N-[(2E)-1-methylimidazolidin-2-ylidene]-4-({3-[(propan-2-yl)carbamoyl]phenyl}amino)benzamide]: the EC50 turned out to be 19.8 nM.
On to `CC(C)NC(=O)c1cccc(Nc2ccc(C(=O)N=C3NCCN3)cc2C2CC2)c1F` [Compound 98, 3-cyclopropyl-4-({2-fluoro-3-[(propan-2-yl)carbamoyl]phenyl}amino)-N-[(2Z)-imidazolidin-2-ylidene]benzamide], for which the EC50 is 228 nM.
With `CC(C)NC(=O)c1cccc(Nc2ccc(C(=O)N=C3NCCN3)cc2C2CC2)c1-c1ccoc1` [Compound 92, 3-[(2-cyclopropyl-4-{[(2Z)-imidazolidin-2-ylidene]carbamoyl}phenyl)amino]-2-(furan-3-yl)-N-(propan-2-yl)benzamide] the figure was 277 nM; with `CC(C)NC(=O)c1cccc(Nc2ccc(C(=O)N=C3NCCN3)cc2C2CCOC2)c1` (stereo not drawn) [Compound 59, N-[(2E)-imidazolidin-2-ylidene]-3-(oxolan-3-yl)-4-({3-[(propan-2-yl)carbamoyl]phenyl}amino)benzamide], 237 nM.
On to `CC1(C(=O)Nc2cccc(Nc3c(F)cc(C(=O)N=C4NCCN4)cc3C3CC3)c2)COC1` [Compound 163, N-{3-[(2-cyclopropyl-6-fluoro-4-{[imidazolidin-2-ylidene]carbamoyl}phenyl)amino]phenyl}-3-methyloxetane-3-carboxamide], for which the EC50 came out at 35 nM.
Consider `CC(C)(O)c1cc(C(=O)N=C2NCCN2)ccc1Nc1cccc(C(=O)N2CCOCC2)c1C(F)(F)F` [Compound 30, 3-(2-hydroxypropan-2-yl)-N-[(2E)-imidazolidin-2-ylidene]-4-{[3-(morpholine-4-carbonyl)-2-(trifluoromethyl)phenyl]amino}benzamide], for which the EC50 was 42.7 nM.
Consider `CC(C)NC(=O)c1cccc(Nc2c(F)cc(C(=O)N=C3NCCN3)cc2C2CC2)c1F` [Compound 130, 3-cyclopropyl-5-fluoro-4-({2-fluoro-3-[(propan-2-yl)carbamoyl]phenyl}amino)-N-[imidazolidin-2-ylidene]benzamide], for which the EC50 was determined as 7.3 nM.
With `CC(C)(C)c1cc(C(=O)N=C2NCCN2)ccc1Nc1cccc(C(=O)NCCC2CCCOC2)c1` (stereo not drawn) [Compound 33, 3-tert-butyl-N-[(2E)-imidazolidin-2-ylidene]-4-[(3-{[2-(oxan-3-yl)ethyl]carbamoyl}phenyl)amino]benzamide] the figure was 50.2 nM.
On to `CC(C)CC1(NC(=O)c2cccc(Nc3ccc(C(=O)N=C4NCCN4)cc3C3CC3)c2)CC1` [Compound 107, 3-cyclopropyl-N-[(2Z)-imidazolidin-2-ylidene]-4-[(3-{[1-(2-methylpropyl)cyclopropyl]carbamoyl}phenyl)amino]benzamide], for which the EC50 is 14 nM.
As for `CC(C)NC(=O)c1cc(F)cc(Nc2ccc(C(=O)N=C3NCCN3)cc2C2CC2)c1` [Compound 32, 3-cyclopropyl-4-({3-fluoro-5-[(propan-2-yl)carbamoyl]phenyl}amino)-N-[(2Z)-imidazolidin-2-ylidene]benzamide], the EC50 is 49.2 nM.
Regarding `O=C(N=C1NCCN1)c1cc(F)c(Nc2cccc(C(=O)N3CCOCC3)c2)c(C2CCCO2)c1` (stereo not drawn) [Compound 145, 3-fluoro-N-[imidazolidin-2-ylidene]-4-{[3-(morpholine-4-carbonyl)phenyl]amino}-5-(oxolan-2-yl)benzamide], the EC50 turned out to be 475 nM.
Consider `O=C(N=C1NCCN1)c1ccc(Nc2cc(F)cc(C(=O)N3CCOCC3)c2)c(C2CC2)c1` [Compound 73, 3-cyclopropyl-4-{[3-fluoro-5-(morpholine-4-carbonyl)phenyl]amino}-N-[(2Z)-imidazolidin-2-ylidene]benzamide], for which the EC50 worked out at 1290 nM.
With `CC1(NC(=O)c2cccc(Nc3ccc(C(=O)N=C4NCCN4)cc3C3CCC3)c2)CC1` [Compound 18, 3-cyclobutyl-N-[(2Z)-imidazolidin-2-ylidene]-4-({3-[(1-methylcyclopropyl)carbamoyl]phenyl}amino)benzamide] the figure was 21.2 nM; with `CC(C)NC(=O)c1cccc(Nc2ccc(C(=O)/N=C3\NCCN3C3CC3)cc2C2CC2)c1` [Compound 43, 3-cyclopropyl-N-[(2E)-1-cyclopropylimidazolidin-2-ylidene]-4-({3-[(propan-2-yl)carbamoyl]phenyl}amino)benzamide], 79.8 nM; with `Cc1c(C(=O)NCCC(C)C)ccnc1Nc1ccc(C(=O)N=C2NCCN2)cc1C1CC1` [Compound 40, 2-[(2-cyclopropyl-4-{[(2E)-imidazolidin-2-ylidene]carbamoyl}phenyl)amino]-3-methyl-N-(3-methylbutyl)pyridine-4-carboxamide], 69.2 nM.
For `COc1c(Nc2ccc(C(=O)N=C3NCCN3)cc2C2CC2)cccc1C(=O)NCCC(C)C` [Compound 27, 3-cyclopropyl-N-[(2Z)-imidazolidin-2-ylidene]-4-({2-methoxy-3-[(3-methylbutyl)carbamoyl]phenyl}amino)benzamide], the concentration for a half-maximal effect (EC50) turned out to be 41.4 nM.
Regarding `CC(C)(C)c1cc(C(=O)N=C2NCCN2)ccc1Nc1cc(C(=O)NCCC2CCOCC2)ccn1` [Compound 74, 2-[(2-tert-butyl-4-{[(2E)-imidazolidin-2-ylidene]carbamoyl}phenyl)amino]-N-[2-(oxan-4-yl)ethyl]pyridine-4-carboxamide], the EC50 is 1310 nM.
With `N#CC1(C(=O)Nc2cccc(Nc3ccc(C(=O)N=C4NCCN4)cc3C3CC3)c2)CC1` [Compound 141, 4-{[3-(1-cyanocyclopropaneamido)phenyl]amino}-3-cyclopropyl-N-[imidazolidin-2-ylidene]benzamide] the figure was 150 nM; with `CC1(NC(=O)c2nccc(Nc3c(F)cc(C(=O)N=C4NCCN4)cc3C3CC3)c2Cl)CC1` [Compound 157, 3-chloro-4-[(2-cyclopropyl-6-fluoro-4-{[imidazolidin-2-ylidene]carbamoyl}phenyl)amino]-N-(1-methylcyclopropyl)pyridine-2-carboxamide], 26.6 nM.
Turning to `O=C(N=C1NCCN1)c1cc(F)c(Nc2cccc(C(=O)N3CCOCC3C(F)(F)F)c2)c(C2CC2)c1` (stereo not drawn) [Compound 142, 3-cyclopropyl-5-fluoro-N-[imidazolidin-2-ylidene]-4-({3-[3-(trifluoromethyl)morpholine-4-carbonyl]phenyl}amino)benzamide], the EC50 was found to be 41.4 nM.
For the compound `CC(C)NC(=O)c1cccc(Nc2ccc(C(=O)N=C3N(C)CCN3C)cc2C(C)(C)C)c1` [Compound 71, 3-tert-butyl-N-[(2Z)-1,3-dimethylimidazolidin-2-ylidene]-4-({3-[(propan-2-yl)carbamoyl]phenyl}amino)benzamide], the EC50 was 1170 nM.

Values taken from patent US12617756B2 (ABIVAX, priority 2019, dated 2026).
